How the values were obtained:
[1] = test system: anti-CsA monoclonal antibody; assay: Abbott TDx Monoclonal CsA immunoassay (FPIA) cross-reactivity; format: binding, mouse; conditions: 200 ng/mL cyclosporine; metabolite 250 ng/mL
Procedure: (§1) Antibody. The anti-CsA monoclonal antibody used in the […]® assay is immobilized on Goat Anti-Mouse (GAM) antibody coated magnetic microparticles. The same anti-CsA antibody is used in soluble form in the Abbott TDx and AxSYM® assays (Abbott Laboratories, Abbott Park, Ill.). Soluble mouse anti-CsA antibody is added directly to GAM microparticles and non-covalent binding occurs by antibody-mediated binding. GAM antibody is passively bound to magnetic polystyrene microparticles and then treated with a water-soluble carbodiimide to fix the antibody on the particle. GAM particles can be prepared using ordinary skill in the art.
(§2) FPIA test methods. Abbott TDx Monoclonal and AxSYM® immunoassays were measured on specimens and calibrators using procedures described in the package inserts. Specimens were extracted with a combination of saponin, organic solvent and Zinc sulfate and precipitated protein was centrifuged down. The clear supernatant was tested using assay reagents (Tracer, Antibody and Assay Diluent). However, in Example 4, the different extraction (pretreatment) methods of TDx and AxSYM® were employed, but all results were generated on […]®.

[2] = test system: anti-CsA monoclonal antibody; assay: Abbott AxSYM CsA immunoassay (FPIA) cross-reactivity; format: binding, mouse; conditions: 200 ng/mL cyclosporine; metabolite 250 ng/mL
Procedure: as §1, §2
Cross-reactivities for AM9 (500 ng/mL) were 12.6% for AxSYM®, 25% for CEDIA, and 6% for EMIT.

[3] = test system: cyclosporine antibody; assay: Dade RxLFlex cyclosporine assay cross-reactivity; format: binding; conditions: 200 ng/mL cyclosporine; metabolite 1000 ng/mL
[4] = times greater than cyclosporine CsA; cited from earlier work

Structure (SMILES) | Abbott TDx cross-reactivity [1] | Abbott AxSYM cross-reactivity [2] | Dade RxLFlex cross-reactivity [3] | in vivo potency relative to cyclosporine CsA [4]
CC[C@@H]1NC(=O)[C@H]([C@H](O)[C@H](C)C/C=C/CO)N(C)C(=O)[C@H](C(C)C)N(C)C(=O)[C@H](CC(C)C)N(C)C(=O)[C@H](CC(C)(C)O)N(C)C(=O)[C@@H](C)NC(=O)[C@H](C)NC(=O)[C@H](CC(C)C)N(C)C(=O)[C@H](C(C)C)NC(=O)[C@H](CC(C)C)N(C)C(=O)CN(C)C1=O [AM19] | not statistically significant | not statistically significant | 2-3% | 
C=CC[C@@H]1/C=C(\C)C[C@H](C)C[C@H](OC)[C@H]2O[C@@](O)(C(=O)C(=O)N3CCCC[C@H]3C(=O)O[C@H](/C(C)=C/[C@@H]3CC[C@@H](O)[C@H](OC)C3)[C@H](C)[C@@H](O)CC1=O)[C@H](C)C[C@@H]2OC [Tacrolimus, tacrolimus] |  |  |  | 50-100 times
